Measured values: patent EP4691482A1, “LONG-ACTING CALCITONIN ANALOG” (Chengdu Aoda Biotechnology Co., Ltd., priority 2023, dated 2024)

What follows are compounds tested against T1, calcitonin receptors (CTR) (Homo sapiens, UniProt P30988) (assay: cAMP determination (HTRF, cAMP Dynamic 2 Kit) in cAMP Hunter HEK293-CT-R Gs cell line). Conditions: HEK293 cell line stably expressing CT-R; intracellular cAMP, HTRF.
T1 construct: expressed in transfected cells; host or cells: cAMP Hunter HEK293-CT-R Gs cell line (HEK293, stably transfected)
T1 sequence (P30988 25-474): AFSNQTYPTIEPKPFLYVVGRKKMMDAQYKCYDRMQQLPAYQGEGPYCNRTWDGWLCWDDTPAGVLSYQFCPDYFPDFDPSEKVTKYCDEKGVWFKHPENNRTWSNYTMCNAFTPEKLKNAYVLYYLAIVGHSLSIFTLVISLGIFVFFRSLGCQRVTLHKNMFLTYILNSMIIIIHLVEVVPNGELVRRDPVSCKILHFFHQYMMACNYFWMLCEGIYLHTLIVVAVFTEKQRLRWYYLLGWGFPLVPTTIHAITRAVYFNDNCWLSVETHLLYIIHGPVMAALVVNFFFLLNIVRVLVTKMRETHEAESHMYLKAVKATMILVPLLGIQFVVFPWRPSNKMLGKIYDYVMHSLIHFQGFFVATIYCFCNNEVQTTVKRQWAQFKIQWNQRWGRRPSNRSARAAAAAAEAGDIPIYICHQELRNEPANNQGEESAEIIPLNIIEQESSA
Format: cell-based
Excerpt: Upon activation by a ligand, Gas-coupled GPCRs can upregulate intracellular cAMP level, and cAMP, as a second messenger, can mediate a series of cellular responses. The cAMP Hunter HEK293-CT-R Gs cell line, which overexpresses Gas-coupled calcitonin receptors (CTR), was used. The binding of calcitonin (or an analog thereof) to the overexpressed CTR upregulates intracellular cAMP level. The amount of intracellular cAMP produced after activation by the calcitonin (or an analog thereof) was detected using a cAMP Dynamic 2 Kit to evaluate the biological activity of the calcitonin (or an analog thereof). HEK293 cell line stably expressing CT-R was used. Stably transfected cells were stimulated with various concentrations of agonists. The time-resolved fluorescence resonance energy signal from the cells after stimulation with different doses was measured using HTRF technology, from which the biological activity of the agonist was subsequently calculated.

EC50 [pM]	SMILES
3.7	CC(C)C[C@H](NC(=O)[C@H](CCCCN)NC(=O)CNC(=O)[C@H](CC(C)C)NC(=O)[C@@H](NC(=O)[C@@H]1CSSC[C@H](N)C(=O)N[C@@H](CO)C(=O)N[C@@H](CC(N)=O)C(=O)N[C@@H](CC(C)C)C(=O)N[C@@H](CO)C(=O)N[C@@H]([C@@H](C)O)C(=O)N1)C(C)C)C(=O)N[C@@H](CO)C(=O)N[C@@H](CCC(N)=O)C(=O)N[C@@H](CCC(=O)O)C(=O)N[C@@H](CC(C)C)C(=O)N[C@@H](Cc1c[nH]cn1)C(=O)N[C@@H](CCCCNC(=O)CNC(=O)CNC(=O)[C@H](CO)NC(=O)CNC(=O)[C@H](CO)NC(=O)CNC(=O)CC[C@H](NC(=O)CCCCCCCCCCCCCCCCCCC(=O)O)C(=O)O)C(=O)N[C@@H](CC(C)C)C(=O)N[C@@H](CCC(N)=O)C(=O)N[C@H](C(=O)N[C@@H](Cc1ccc(O)cc1)C(=O)N1CCC[C@H]1C(=O)N[C@@H](CCCNC(=N)N)C(=O)N[C@H](C(=O)N[C@@H](CC(N)=O)C(=O)N[C@H](C(=O)NCC(=O)N[C@@H](CO)C(=O)NCC(=O)N[C@H](C(=O)N1CCC[C@H]1C(N)=O)[C@@H](C)O)[C@@H](C)O)[C@@H](C)O)[C@@H](C)O [Compound 8]
4.3	CC(C)C[C@H](NC(=O)[C@H](CCCCN)NC(=O)CNC(=O)[C@H](CC(C)C)NC(=O)[C@@H](NC(=O)[C@@H]1CSSC[C@H](N)C(=O)N[C@@H](CO)C(=O)N[C@@H](CC(N)=O)C(=O)N[C@@H](CC(C)C)C(=O)N[C@@H](CO)C(=O)N[C@@H]([C@@H](C)O)C(=O)N1)C(C)C)C(=O)N[C@@H](CO)C(=O)N[C@@H](CCC(N)=O)C(=O)N[C@@H](CCC(=O)O)C(=O)N[C@@H](CC(C)C)C(=O)N[C@@H](Cc1c[nH]cn1)C(=O)N[C@@H](CCCCNC(=O)CNC(=O)CNC(=O)CC[C@H](NC(=O)CCCCCCCCCCCCCCCCCCC(=O)O)C(=O)O)C(=O)N[C@@H](CC(C)C)C(=O)N[C@@H](CCC(N)=O)C(=O)N[C@H](C(=O)N[C@@H](Cc1ccc(O)cc1)C(=O)N1CCC[C@H]1C(=O)N[C@@H](CCCNC(=N)N)C(=O)N[C@H](C(=O)N[C@@H](CC(N)=O)C(=O)N[C@H](C(=O)NCC(=O)N[C@@H](CO)C(=O)NCC(=O)N[C@H](C(=O)N1CCC[C@H]1C(N)=O)[C@@H](C)O)[C@@H](C)O)[C@@H](C)O)[C@@H](C)O [Compound 11]

Same assay, conditions: relative to Salmon Calcitonin = 100.0; HEK293 CT-R cAMP

Relative Activity% [%]	SMILES
172.7	CC(C)C[C@H](NC(=O)[C@H](CCCCN)NC(=O)CNC(=O)[C@H](CC(C)C)NC(=O)[C@@H](NC(=O)[C@@H]1CSSC[C@H](N)C(=O)N[C@@H](CO)C(=O)N[C@@H](CC(N)=O)C(=O)N[C@@H](CC(C)C)C(=O)N[C@@H](CO)C(=O)N[C@@H]([C@@H](C)O)C(=O)N1)C(C)C)C(=O)N[C@@H](CO)C(=O)N[C@@H](CCC(N)=O)C(=O)N[C@@H](CCC(=O)O)C(=O)N[C@@H](CC(C)C)C(=O)N[C@@H](Cc1c[nH]cn1)C(=O)N[C@@H](CCCCNC(=O)COCCOCCOCCOCCOCCOCCNC(=O)CC[C@H](NC(=O)CCCCCCCCCCCCCCCCCCC(=O)O)C(=O)O)C(=O)N[C@@H](CC(C)C)C(=O)N[C@@H](CCC(N)=O)C(=O)N[C@H](C(=O)N[C@@H](Cc1ccc(O)cc1)C(=O)N1CCC[C@H]1C(=O)N[C@@H](CCCNC(=N)N)C(=O)N[C@H](C(=O)N[C@@H](CC(N)=O)C(=O)N[C@H](C(=O)NCC(=O)N[C@@H](CO)C(=O)NCC(=O)N[C@H](C(=O)N1CCC[C@H]1C(N)=O)[C@@H](C)O)[C@@H](C)O)[C@@H](C)O)[C@@H](C)O [Compound 6, Cys-Ser-Asn-Leu-Ser-Thr-Cys-Val-Leu-Gly-Lys-Leu-Ser-Gln-Glu-Leu-His-Lys(PEG6CH2CO-yGlu-eicosanedioic acid)-Leu-Gln-Thr-Tyr-Pro-Arg-Thr-Asn-Thr-Gly-Ser-Gly-Thr-Pro-NH2]
231.7	CC(C)C[C@H](NC(=O)[C@H](CCCCN)NC(=O)CNC(=O)[C@H](CC(C)C)NC(=O)[C@@H](NC(=O)[C@@H]1CSSC[C@H](N)C(=O)N[C@@H](CO)C(=O)N[C@@H](CC(N)=O)C(=O)N[C@@H](CC(C)C)C(=O)N[C@@H](CO)C(=O)N[C@@H]([C@@H](C)O)C(=O)N1)C(C)C)C(=O)N[C@@H](CO)C(=O)N[C@@H](CCC(N)=O)C(=O)N[C@@H](CCC(=O)O)C(=O)N[C@@H](CC(C)C)C(=O)N[C@@H](Cc1c[nH]cn1)C(=O)N[C@@H](CCCCNC(=O)COCCOCCNC(=O)CC[C@H](NC(=O)CCCCCCCCCCCCCCCCCCC(=O)O)C(=O)O)C(=O)N[C@@H](CC(C)C)C(=O)N[C@@H](CCC(N)=O)C(=O)N[C@H](C(=O)N[C@@H](Cc1ccc(O)cc1)C(=O)N1CCC[C@H]1C(=O)N[C@@H](CCCNC(=N)N)C(=O)N[C@H](C(=O)N[C@@H](CC(N)=O)C(=O)N[C@H](C(=O)NCC(=O)N[C@@H](CO)C(=O)NCC(=O)N[C@H](C(=O)N1CCC[C@H]1C(N)=O)[C@@H](C)O)[C@@H](C)O)[C@@H](C)O)[C@@H](C)O [Compound 2, Cys-Ser-Asn-Leu-Ser-Thr-Cys-Val-Leu-Gly-Lys-Leu-Ser-Gln-Glu-Leu-His-Lys(PEG2CH2CO-γGlu-eicosanedioic acid)-Leu-Gln-Thr-Tyr-Pro-Arg-Thr-Asn-Thr-Gly-Ser-Gly-Thr-Pro-NH2]
256.8	CC(C)C[C@H](NC(=O)[C@H](CCCCN)NC(=O)CNC(=O)[C@H](CC(C)C)NC(=O)[C@@H](NC(=O)[C@@H]1CSSC[C@H](N)C(=O)N[C@@H](CO)C(=O)N[C@@H](CC(N)=O)C(=O)N[C@@H](CC(C)C)C(=O)N[C@@H](CO)C(=O)N[C@@H]([C@@H](C)O)C(=O)N1)C(C)C)C(=O)N[C@@H](CO)C(=O)N[C@@H](CCC(N)=O)C(=O)N[C@@H](CCC(=O)O)C(=O)N[C@@H](CC(C)C)C(=O)N[C@@H](Cc1c[nH]cn1)C(=O)N[C@@H](CCCCNC(=O)COCCOCCOCCNC(=O)CC[C@H](NC(=O)CCCCCCCCCCCCCCCCCCC(=O)O)C(=O)O)C(=O)N[C@@H](CC(C)C)C(=O)N[C@@H](CCC(N)=O)C(=O)N[C@H](C(=O)N[C@@H](Cc1ccc(O)cc1)C(=O)N1CCC[C@H]1C(=O)N[C@@H](CCCNC(=N)N)C(=O)N[C@H](C(=O)N[C@@H](CC(N)=O)C(=O)N[C@H](C(=O)NCC(=O)N[C@@H](CO)C(=O)NCC(=O)N[C@H](C(=O)N1CCC[C@H]1C(N)=O)[C@@H](C)O)[C@@H](C)O)[C@@H](C)O)[C@@H](C)O [Compound 3, Cys-Ser-Asn-Leu-Ser-Thr-Cys-Val-Leu-Gly-Lys-Leu-Ser-Gln-Glu-Leu-His-Lys(PEG3CH2CO-yGlu-eicosanedioic acid)-Leu-Gln-Thr-Tyr-Pro-Arg-Thr-Asn-Thr-Gly-Ser-Gly-Thr-Pro-NH2]
271.4	CC(C)C[C@H](NC(=O)[C@H](CCCCN)NC(=O)CNC(=O)[C@H](CC(C)C)NC(=O)[C@@H](NC(=O)[C@@H]1CSSC[C@H](N)C(=O)N[C@@H](CO)C(=O)N[C@@H](CC(N)=O)C(=O)N[C@@H](CC(C)C)C(=O)N[C@@H](CO)C(=O)N[C@@H]([C@@H](C)O)C(=O)N1)C(C)C)C(=O)N[C@@H](CO)C(=O)N[C@@H](CCC(N)=O)C(=O)N[C@@H](CCC(=O)O)C(=O)N[C@@H](CC(C)C)C(=O)N[C@@H](Cc1c[nH]cn1)C(=O)N[C@@H](CCCCNC(=O)COCCOCCOCCNC(=O)CC[C@H](NC(=O)CCCCCCCCCCCCCCCCC(=O)O)C(=O)O)C(=O)N[C@@H](CC(C)C)C(=O)N[C@@H](CCC(N)=O)C(=O)N[C@H](C(=O)N[C@@H](Cc1ccc(O)cc1)C(=O)N1CCC[C@H]1C(=O)N[C@@H](CCCNC(=N)N)C(=O)N[C@H](C(=O)N[C@@H](CC(N)=O)C(=O)N[C@H](C(=O)NCC(=O)N[C@@H](CO)C(=O)NCC(=O)N[C@H](C(=O)N1CCC[C@H]1C(N)=O)[C@@H](C)O)[C@@H](C)O)[C@@H](C)O)[C@@H](C)O [Compound 18, Cys-Ser-Asn-Leu-Ser-Thr-Cys-Val-Leu-Gly-Lys-Leu-Ser-Gln-Glu-Leu-His-Lys(PEG3CH2CO-γGlu-octadecanedioic acid)-Leu-Gln-Thr-Tyr-Pr o-Arg-Thr-Asn-Thr-Gly-Ser-Gly-Thr-Pro-NH2]
206.5	CC(C)C[C@H](NC(=O)[C@H](CCCCN)NC(=O)CNC(=O)[C@H](CC(C)C)NC(=O)[C@@H](NC(=O)[C@@H]1CSSC[C@H](N)C(=O)N[C@@H](CO)C(=O)N[C@@H](CC(N)=O)C(=O)N[C@@H](CC(C)C)C(=O)N[C@@H](CO)C(=O)N[C@@H]([C@@H](C)O)C(=O)N1)C(C)C)C(=O)N[C@@H](CO)C(=O)N[C@@H](CCC(N)=O)C(=O)N[C@@H](CCC(=O)O)C(=O)N[C@@H](CC(C)C)C(=O)N[C@@H](Cc1c[nH]cn1)C(=O)N[C@@H](CCCCNC(=O)COCCNC(=O)CC[C@H](NC(=O)CCCCCCCCCCCCCCCCCCC(=O)O)C(=O)O)C(=O)N[C@@H](CC(C)C)C(=O)N[C@@H](CCC(N)=O)C(=O)N[C@H](C(=O)N[C@@H](Cc1ccc(O)cc1)C(=O)N1CCC[C@H]1C(=O)N[C@@H](CCCNC(=N)N)C(=O)N[C@H](C(=O)N[C@@H](CC(N)=O)C(=O)N[C@H](C(=O)NCC(=O)N[C@@H](CO)C(=O)NCC(=O)N[C@H](C(=O)N1CCC[C@H]1C(N)=O)[C@@H](C)O)[C@@H](C)O)[C@@H](C)O)[C@@H](C)O [Compound 1, Cys-Ser-Asn-Leu-Ser-Thr-Cys-Val-Leu-Gly-Lys-Leu-Ser-Gln-Glu-Leu-His-Lys(PEG1CH2CO-γGlu-eicosanedioic acid)-Leu-Gln-Thr-Tyr-Pro-Arg-Thr-Asn-Thr-Gly-Ser-Gly-Thr-Pro-NH2]
